Test results from patent US20170293715A1, “SYSTEMS, METHODS AND SOFTWARE FOR RANKING POTENTIAL GEROPROTECTIVE DRUGS” (Insilico Medicine, Inc., priority 2014, published 2017).
Where “and” joins values, the source holds several entries; their conditions need not be identical. Equal values may be shown once.

How the values were obtained:
Format in all cases: cell-based
FLT3 signaling pathway = assay: PAS score of FLT3 pathway in late-passage human fibroblasts cultured with putative geroprotectors; design: unit of the concentration uncertain; conditions: 48 hours, aged human fibroblasts (aliquot C) vs aliquot A control
Experimental: (§1) PASp=ΣNIInp×ARRnp×BTIFn×lg(CNRn)
(§2) The culture of human fibroblasts was isolated from skin of a healthy adult donor and cultured for five passages in DMEM/F12 medium supplemented by 10% FBS. The tissue sample was obtained with the written consent of a donor according to EU and local ethical guidelines. An aliquot containing ˜10 million cells was frozen in liquid nitrogen (aliquot A), whereas the remaining part of the cell culture was grown for 20 additional passages in the same medium. The cells were then harvested and stored in liquid nitrogen (aliquot B). Aliquot B cells were then cultured for two additional passages and then cultured for 48 hours in the presence of four putative geroprotector drugs. The resulting cells were harvested (aliquot C). The transcriptomes of the aliquots A, B and C were investigated with the Illumina HT12 v4 gene expression microarrays (Illumina, USA). In such a way we profiled expression of the genes implicated in the functioning of the following ten signaling pathways: AHR, AKT, Circadian, DNA repair mechanisms, EGFR, ERK signaling, Estrogen pathway, FLT3, Growth hormone, Hedgehog.
(§3) Zero PAS value means identical signaling pathway activation pattern in the older (aliquots B and C) and younger (aliquot A) fibroblasts.

AHR signaling pathway = assay: PAS score of AHR pathway in late-passage human fibroblasts cultured with putative geroprotectors; conditions: 48 hours, aged human fibroblasts (aliquot C) vs aliquot A control
Experimental: as §1, §2, §3

[1] = tested on: Circadian signaling pathway; assay: PAS score of Circadian pathway in late-passage human fibroblasts cultured with putative geroprotectors; conditions: 48 hours, aged human fibroblasts (aliquot C) vs aliquot A control
Experimental: as §1, §2, §3

[2] = tested on: Hedgehog signaling pathway; assay: PAS score of Hedgehog pathway in late-passage human fibroblasts cultured with putative geroprotectors; design: unit of the concentration uncertain; conditions: 48 hours, aged human fibroblasts (aliquot C) vs aliquot A control
Experimental: as §1
The culture of human fibroblasts was isolated from skin of a healthy adult donor and cultured for five passages in DMEM/F12 medium supplemented by 10% FBS. The tissue sample was obtained with the written consent of a donor according to EU and local ethical guidelines. An aliquot containing ˜10 million cells was frozen in liquid nitrogen (aliquot A), whereas the remaining part of the cell culture was grown for 20 additional passages in the same medium. The cells were then harvested and stored in liquid nitrogen (aliquot B). Aliquot B cells were then cultured for two additional passages and then cultured for 48 hours in the presence of four putative geroprotector drugs. The resulting cells were harvested (aliquot C). The transcriptomes of the aliquots A, B and C were investigated with the Illumina HT12 v4 gene expression microarrays (Illumina, USA). In such a way we profiled expression of the genes implicated in the functioning of the following ten signaling pathways: AHR, AKT, Circadian, DNA repair mechanisms, EGFR, ERK signaling, Estrogen pathway, FLT3, Growth hormone, Hedgehog. The information about pathway configuration and functional roles of the individual genes was taken from the public database provided by SABiosciences (SABiosciences, a Qiagen company. Using Student statistical criterion and a threshold p-value <0.05, we identified a list of the differential genes and calculated for them CNRn values. The set of gene expression data corresponding to the “aliquot A” group of samples was taken as the control. The data were processed with the algorithm for the calculation of PAS, and the following pathway activation data were obtained (Table 9).
Zero PAS value means identical signaling pathway activation pattern in the older (aliquots B and C) and younger (aliquot A) fibroblasts. […] The present invention proposes ranking of the geroprotector drugs according to their ability to compensate aging-related differences in signaling pathway activation reflected by the PAS values.

human skin fibroblasts = assay: Reversion of PAS patterns to the younger state, ranking of geroprotectors
Experimental: (§4) The culture of human fibroblasts was isolated from skin of a healthy adult donor and cultured for five passages in DMEM/F12 medium supplemented by 10% FBS. The tissue sample was obtained with the written consent of a donor according to EU and local ethical guidelines. An aliquot containing ˜10 million cells was frozen in liquid nitrogen (aliquot A), whereas the remaining part of the cell culture was grown for 20 additional passages in the same medium. The cells were then harvested and stored in liquid nitrogen (aliquot B). Aliquot B cells were then cultured for two additional passages and then cultured for 48 hours in the presence of four putative geroprotector drugs. The resulting cells were harvested (aliquot C). […] The information about pathway configuration and functional roles of the individual genes was taken from the public database provided by SABiosciences (SABiosciences, a Qiagen company. Using Student statistical criterion and a threshold p-value <0.05, we identified a list of the differential genes and calculated for them CNRn values. The set of gene expression data corresponding to the “aliquot A” group of samples was taken as the control. The data were processed with the algorithm for the calculation of PAS, and the following pathway activation data were obtained (Table 9). […]

[3] = tested on: Growth hormone (GH) signaling pathway; assay: PAS score of Growth hormone pathway in late-passage human fibroblasts cultured with putative geroprotectors; conditions: 1 mM, 48 hours, aged human fibroblasts (aliquot C) vs aliquot A control
Experimental: as §1, §4

DNA repair mechanisms = assay: PAS score of DNA repair pathway in late-passage human fibroblasts cultured with putative geroprotectors; conditions: 1 mM, 48 hours, aged human fibroblasts (aliquot C) vs aliquot A control
Experimental: as §1, §4

O=C(O)c1nn(Cc2ccc(Cl)cc2Cl)c2ccccc12 [Lonidamine]
PAS FLT3 (FLT3 signaling pathway; 5 (unit uncertain)): −1 | PAS AHR (AHR signaling pathway; 5 mM): 2 and 4 | PAS Circadian ([1]; 5 mM): 5 and 7 | PAS Hedgehog ([2]; 5 (unit uncertain)): 17 and 22

Oc1ccc(C=Cc2cc(O)cc(O)c2)cc1 [Resveratrol]
PAS FLT3 (FLT3 signaling pathway; 1 (unit uncertain)): 2 | PAS Circadian ([1]; 1 mM): 4 | pathways whose PAS patterns were better reverted to the younger state (human skin fibroblasts; 1 mM, of the ten pathways tested): 7/10 | ranking as geroprotector among the four tested (human skin fibroblasts; combined experimental and biomathematical system): best putative geroprotector drug | PAS Hedgehog ([2]; 1 (unit uncertain)): 9 and 11

NCCCCNCCCN [Spermidine]
PAS GH [3]: −9 | PAS AHR (AHR signaling pathway; 1 mM): 3 and 2 | PAS Circadian ([1]; 1 mM): 5 and 8 | PAS DNA repair (DNA repair mechanisms): −10 | PAS Hedgehog ([2]; 1 (unit uncertain)): 17 and 18

COC[C@H]1OC(=O)c2coc3c2[C@@]1(C)C1=C(C3=O)[C@@H]2CCC(=O)[C@@]2(C)C[C@H]1OC(C)=O [Wortmannin]
PAS AHR (AHR signaling pathway; 0.5 mM): 1 and 2 | PAS Circadian ([1]; 0.5 mM): 6 and 5 | PAS Hedgehog ([2]; 0.5 (unit uncertain)): 12 and 10
